Assay results published in US11401270B2, “Alcoxyamino derivatives for treating pain and pain related conditions” (ESTEVE PHARMACEUTICALS, S.A., priority 2017, dated 2022).

These compounds were tested against Human α2δ-1 subunit of Cav2.2 calcium channel (Homo sapiens (Human), UniProt P54289) (assay: Binding Assay to Human α2δ-1 Subunit of Cav2.2 Calcium Channel). Settings: Table 1; human α2δ-1 enriched membranes, 15 nM [3H]-Gabapentin; read-out: Ki(nM) alpha2delta Hum.
Experimental: Binding Assay to Human α2δ-1 Subunit of Cav2.2 Calcium Channel.
NSB (non specific binding) was measured by adding 10 μM pregabalin. The binding of the test compound was measured in five different concentrations. After 60 min incubation at 27° C., binding reaction was terminated by filtering through Multiscreen GF/C (Millipore) presoaked in 0.5% polyethyleneimine in Vacuum Manifold Station, followed by 3 washes with ice-cold filtration buffer containing 50 mM Tris-HCl, pH 7.4.
Filter plates were dried at 60° C. for 1 hour and 30 μl of scintillation cocktail were added to each well before radioactivity reading.

Sequence of Human α2δ-1 subunit of Cav2.2 calcium channel (P54289 25-1103): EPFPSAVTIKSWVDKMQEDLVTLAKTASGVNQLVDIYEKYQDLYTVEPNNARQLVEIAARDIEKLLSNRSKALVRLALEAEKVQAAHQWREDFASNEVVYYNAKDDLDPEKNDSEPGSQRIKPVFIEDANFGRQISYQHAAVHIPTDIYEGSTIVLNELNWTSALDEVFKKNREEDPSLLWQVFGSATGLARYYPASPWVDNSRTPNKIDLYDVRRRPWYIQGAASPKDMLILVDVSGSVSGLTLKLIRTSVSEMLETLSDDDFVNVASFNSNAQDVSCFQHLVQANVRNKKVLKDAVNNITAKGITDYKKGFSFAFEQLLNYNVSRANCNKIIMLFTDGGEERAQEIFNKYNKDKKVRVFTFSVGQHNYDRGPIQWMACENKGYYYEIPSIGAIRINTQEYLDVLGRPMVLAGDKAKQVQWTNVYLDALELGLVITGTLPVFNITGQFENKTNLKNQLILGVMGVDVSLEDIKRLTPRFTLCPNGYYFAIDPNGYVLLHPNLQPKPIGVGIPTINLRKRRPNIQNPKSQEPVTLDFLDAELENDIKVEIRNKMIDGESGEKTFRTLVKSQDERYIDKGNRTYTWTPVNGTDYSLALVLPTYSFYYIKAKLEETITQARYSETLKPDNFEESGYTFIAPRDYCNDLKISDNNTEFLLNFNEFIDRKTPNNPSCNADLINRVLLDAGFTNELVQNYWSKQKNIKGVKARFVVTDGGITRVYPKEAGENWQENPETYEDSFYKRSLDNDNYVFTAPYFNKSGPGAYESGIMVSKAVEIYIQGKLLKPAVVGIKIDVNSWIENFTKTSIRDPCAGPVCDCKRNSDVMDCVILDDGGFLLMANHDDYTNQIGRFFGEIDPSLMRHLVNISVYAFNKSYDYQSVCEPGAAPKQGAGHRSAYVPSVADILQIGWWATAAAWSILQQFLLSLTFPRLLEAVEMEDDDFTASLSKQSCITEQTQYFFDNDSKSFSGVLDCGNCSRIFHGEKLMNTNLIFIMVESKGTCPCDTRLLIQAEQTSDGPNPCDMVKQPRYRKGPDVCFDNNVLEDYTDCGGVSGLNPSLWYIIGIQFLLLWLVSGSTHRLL

`CNCCC(OCc1ccc(N2CCN(C)c3ccccc3C2=O)cc1)c1ccccc1` (stereo not drawn) [Example 46, 1-Methyl-4-(4-((3-(methylamino)-1-phenylpropoxy)methyl)phenyl)-1,2,3,4-tetrahydro-5H-benzo[e][1,4]diazepin-5-one] and `CNCC(OCc1ccc(N2CCN(C)c3ccccc3C2=O)cc1)c1ccccc1` (stereo not drawn) [Example 85, 1-Methyl-4-(4-((2-(methylamino)-1-phenylethoxy)methyl)phenyl)-1,2,3.4-tetrahydro-5H-benzo[e][1,4]diazepin-5-one] cannot be ordered by Ki: > 3000 nM for the first, > 3000 nM for the second.

Compared with `CNCC[C@@H](OCc1cccc(N2CCN(C)c3ccccc3C2=O)c1)c1ccccc1` [Example 47, (R)-1-methyl-4-(3-((3-(methylamino)-1-phenylpropoxy)methyl)phenyl)-1,2,3,4-tetrahydro-5H-benzo[e][1,4]diazepin-5-one], `CNCC[C@H](OCc1cccc(N2CCN(C)c3ccccc3C2=O)c1)c1ccccc1` [Example 49] is higher in Ki: 500 to 3000 nM for the first, > 3000 nM for the second.

Compared with `CNCCC(OCc1cccc(N2CCN(C)c3nc(C)ccc3C2=O)c1)c1ccccc1` (stereo not drawn) [Example 48, 1,8-Dimethyl-4-(3-((3-(methylamino)-1-phenylpropoxy)methyl)phenyl)-1,2,3,4-tetrahydro-5H-pyrido[2,3-e][1,4]diazepin-5-one], `CNCC[C@@H](Oc1cccc(N2CCN(C)c3nc(C)ccc3C2=O)c1)c1ccsc1` [Example 79, (R)-1,8-dimethyl-4-(3-(3-(methylamino)-1-(thiophen-3-yl)propoxy)phenyl)-1,2,3,4-tetrahydro-5H-pyrido[2,3-e][1,4]diazepin-5-one] is lower in Ki: 500 to 3000 nM for the first, 100 to 500 nM for the second. The second binds more tightly here.

First: CNCCC(Oc1cccc(N2CC(=O)N(C)c3ccccc3C2=O)c1)c1cccs1 (stereo not drawn) [Example 51, 1-Methyl-4-(3-(3-(methylamino)-1-(thiophen-2-yl)propoxy)phenyl)-3,4-dihydro-1H-benzo[e][1,4]diazepine-2,5-dione]
Second: CNCCC(Oc1cccc(N2CCN(C)c3ccccc3C2=O)c1)c1cccs1 (stereo not drawn) [Example 53, 1-Methyl-4-(3-(3-(methylamino)-1-(thiophen-2-yl)propoxy)phenyl)-1,2,3,4-tetrahydro-5H-benzo[e][1,4]diazepin-5-one]
The Ki of the first is higher: > 3000 nM for the first, 500 to 3000 nM for the second. The second binds more tightly here.

Compared with `CNCCC(Oc1cccc(N2CCCN(C)CC2=O)c1)c1cccs1` (stereo not drawn) [Example 52, 4-Methyl-1-(3-(3-(methylamino)-1-(thiophen-2-yl)procoxy)phenyl)-1,4-diazepan-2-one], `CNCCC(Oc1cccc(N2CCNCCC2=O)c1)c1cccs1` (stereo not drawn) [Example 59, 4-(3-(3-(Methylamino)-1-(thiophen-2-yl)propoxy)phenyl)-1,4-diazepan-5-one] is lower in Ki: > 3000 nM for the first, 500 to 3000 nM for the second.

Compared with `CNCCC(Oc1cccc(N2CCN(C)c3cccnc3C2=O)c1)c1cccs1` (stereo not drawn) [Example 57, 1-Methyl-4-(3-(3-(methylamino)-1-(thiophen-2-yl)propoxy)phenyl)-1,2,3,4-tetrahydro-5H-pyrido[3,2-e][1,4]diazepin-5-one], `CNCCC(Oc1cccc(N2CCN(C)c3cc(F)cnc3C2=O)c1)c1cccs1` (stereo not drawn) [Example 74, 8-Fluoro-1-methyl-4-(3-(3-(methylamino)-1-(thiophen-2-yl)propoxy)phenyl)-1,2,3,4-tetrahydro-5H-pyrido[3,2-e][1,4]diazepin-5-one] is higher in Ki: 500 to 3000 nM for the first, > 3000 nM for the second. The first binds more tightly here.

`CCNCC(=O)N1CCC(=O)N(c2cccc(OC(CCNC)c3cccs3)c2)CC1` (stereo not drawn) [Example 68, 1-(Ethylglycyl)-4-(3-(3-(methylamino)-1-(thiophen-2-yl)propoxy)phenyl)-1,4-diazepan-5-one] and `CCNC[C@@H]1CC(=O)N(c2cccc(O[C@@H](CCNC)c3cccs3)c2)CCN1C` [Example 87, (S)-7-((ethylamino)methyl)-1-methyl-4-(3-((S)-3-(methylamino)-1-(thiophen-2-yl)propoxy)phenyl)-1,4-diazepan-5-one] fall in the same range of Ki: 500 to 3000 nM for the first, 500 to 3000 nM for the second.

First: CNCCC(Oc1cccc(N2CCN(C)c3cnccc3C2=O)c1)c1cccs1 (stereo not drawn) [Example 73, 1-Methyl-4-(3-(3-(methylamino)-1-(thiophen-2-yl)propoxy)phenyl)-1.2,3,4-tetrahydro-5H-pyrido[3,4-e][1,4]diazepin-5-one]
Second: CNCCC(Oc1cccc(CN2CCN(C)c3ccccc3C2=O)c1)c1cccs1 (stereo not drawn) [Example 106, 1-Methyl-4-(3-(3-(methylamino)-1-(thiophen-yl)propoxy)benzyl)-1,2,3,4-tetrahydro-5H-benzo[e][1,4]diazepin-5-one]
The Ki of the first is lower: 100 to 500 nM for the first, 500 to 3000 nM for the second.

`CNCCC(OCc1ccc(CN2CCN(C)c3ccccc3C2=O)cc1)c1ccccc1` (stereo not drawn) [Example 88, 1-Methyl-4-(4-((3-(methylamino)-1-phenylpropoxy)methyl)benzyl)-1,2,3,4-tetrahydro-5H-benzo[e][1,4]diazepin-5-one] and `CNCC(OCc1ccc(CN2CCN(C)c3ccccc3C2=O)cc1)c1ccccc1` (stereo not drawn) [Example 109, 1-Methyl-4-(4-((2-(methylamino)-1-phenylethoxy)methyl)benzyl)-1,2,3,4-tetrahydro-5H-benzo[e][1,4]diazepin-5-one] cannot be ordered by Ki: > 3000 nM for the first, > 3000 nM for the second.

`CNCCC(OCc1cccc(CN2CCN(C)c3ccccc3C2=O)c1)c1ccccc1` (stereo not drawn) [Example 89, 1-Methyl-4-(3-((3-(methylamino)-1-phenylpropoxy)methyl)benzyl)-1,2,3,4-tetrahydro-5H-benzo[e][1,4]diazepin-5-one] and `CNCCC(Oc1cccc(CN2CCN(C)c3ccccc3C2=O)c1)c1ccccc1` (stereo not drawn) [Example 113, 1-Methyl-4-(3-(3-(methylamino)-1-phenylpropoxy)benzyl)-1,2,3,4-tetrahydro-5H-benzo[e][1,4]diazepin-5-one] cannot be ordered by Ki: > 3000 nM for the first, > 3000 nM for the second.

First: CNCC[C@H](Oc1ccc(CN2CCN(C)c3nc(N(C)C)ccc3C2=O)cc1)c1cccs1 [Example 95, (S)-8-(dimethylamino)-1-methyl-4-(4-(3-(methylamino)-1-(thiophen-2-yl)propoxy)benzyl)-1,2,3.4-tetrahydro-5H-pyrido[2,3-e][1,4]diazepin-5-one]
Second: CNCC[C@H](Oc1ccc(CN2CCN(C)c3ncccc3C2=O)c(C)c1)c1cccs1 [Example 107, (S)-1-methyl-4-(2-methyl-4-(3-(methylamino)-1-(thiophen-2-yl)propoxy)benzyl)-1,2,3,4-tetrahydro-5H-pyrido[2,3-e][1,4]diazepin-5-one]
The Ki of the first is higher: 500 to 3000 nM for the first, < 100 nM for the second.

Compared with `CNCCC(Oc1ccc(CN2CCN(C)CCC2=O)cc1)c1cccs1` (stereo not drawn) [Example 101, 1-Methyl-4-(4-(3-(methylamino)-1-(thiophen-2-yl)propoxy)benzyl)-1,4-diazepan-5-one], `CNCCC(Oc1ccc(CN2CCCN(C)CC2)cc1)c1cccs1` (stereo not drawn) [Example 102, N-methyl-3-(4-((4-methyl-1,4-diazepan-1-yl)methyl)phenoxy)-3-(thiophen-2-yl)propan-1-amine] is higher in Ki: 100 to 500 nM for the first, > 3000 nM for the second. The first binds more tightly here.

First: CNCC[C@H](Oc1ccc(CN2CCCn3cccc3C2=O)cc1)c1cccs1 [Example 105, (S)-2-(4-(3-(methylamino)-1-(thiophen-2-yl)propoxy)benzyl)-2,3,4,5-tetrahydro-1H-pyrrolo[1,2-a][1,4]diazepin-1-one]
Second: CNCCC(Oc1ccc(CN2CCN(C)c3ccccc3C2=O)cc1)c1ccccc1 (stereo not drawn) [Example 112, 1-Methyl-4-(4-(3-(methylamino)-1-phenylpropoxy)benzyl)-1,2,3,4-tetrahydro-5H-benzo[e][1,4]diazepin-5-one]
The Ki of the first is lower: 500 to 3000 nM for the first, > 3000 nM for the second.

Same assay, conditions: Table 2, dual compounds; human α2δ-1 enriched membranes, 15 nM [3H]-Gabapentin; read-out: Ki(nM) alpha2delta Hum

`CNCC[C@H](Oc1ccc(CN2CCCn3cccc3C2=O)cc1)c1cccs1` [Example 105, (S)-2-(4-(3-(methylamino)-1-(thiophen-2-yl)propoxy)benzyl)-2,3,4,5-tetrahydro-1H-pyrrolo[1,2-a][1,4]diazepin-1-one] gave a Ki of 500 to 3000 nM.
